System: leukocyte-platelet aggregate (CD45+CD41+ population)
Assay: Leukocyte-platelet aggregate (LPA) formation and PSGL-1 expression in peripheral blood, L. major infection
Assay type: in vivo, mice
Excerpt: FIG. 12, comprising FIG. 12A through FIG. 12G, depicts results of experiments showing regulation of LPA formation by Dkk-1. FIG. 12A depicts AMNIS analysis of peripheral blood from 6-week old C57BL/6 male mice. FIG. 12B depicts flow cytometry analysis of the basal LPA population (CD45^+CD41^+) Dkk-1^d/d mice and their wildtype littermate controls. B-cell and CD4 T cell among CD45^+CD41^+ cells were monitored at the indicated time points in Dkk-1^d/d mice and their wildtype littermate controls challenged with 30 μg HDM extract/mouse. FIG. 12C depicts flow cytometry analysis of LPA formation in total CD45^+ cells, CD4 T cells, and neutrophils, in mice injected with Dkk-1 inhibitor (n=5) or DMSO vehicle (n=5) 24 hours prior to infection with L. major. FIG. 12D depicts flow cytometry analysis of peripheral blood at given time points for LPA formation in nine-week old C57BL/6 mice (n=5) injected with 300 ng of Dkk-1. […] Mean fluorescence intensity was normalized to unchallenged C57BL/6 mice. […] Normalized MFI for ICAM-1 expression and the percentages of LFA-1 high cells were measured by flow cytometry following injection of 300 ng of Dkk-1 intraperitoneally. […]
Human platelets were isolated as described from healthy volunteers (Tang et al., 2011, J Clin Invest 121:4462-76). […] Samples were analyzed by flow cytometry within 4 to 6 hours. […]

## NCC1CCN(c2nccc(-c3ccc4ccccc4c3)n2)CC1 [WAY-262611, (1-(4-(naphthalen-2-yl)pyrimidin-2-yl)piperidin-4-yl)methanamine]
L. major infection, peripheral blood
  PSGL-1 expression on leukocytes: blocked the increase
Pretreatment 24 h prior to infection with L. major, 4 h post-infection
  elevation of LPA formation: reduced

From patent US11135223B2, “Compositions and methods for inhibiting Dkk-1” (YALE UNIVERSITY, priority 2016, dated 2021)
